# Assay results published in BindingDB's records for doi:10.1021/acs.jmedchem.6b00709 (University of Berne, 2016).
# Test: Inhibition of Aurora A kinase in human HeLa Kyoto cells assessed as induction of defective chromosome alignment during metaphase incubated for 20 hrs
smiles,measurement,value
CCc1ccc(/N=C2\S/C(=C\c3ccnc(Nc4ccc(C(=O)O)cn4)c3)C(=O)N2C)cc1,EC50,6 µM
